Reference: patent publication US8742106B2 (Novartis AG, priority 2009, dated 2014)

Assays:
human orexin 2 receptors = human orexin 2 receptors (Homo sapiens (Human), UniProt O43614); test: Calcium Accumulation in Cells (FLIPR), antagonism of orexin A; assay type: cell-based; settings: for inhibition at 10 µM: measured at a concentration of 10 μM of compound, read-out: FLIPR hOx2R % inhibition value; for Ki: antagonism of orexin A, Cheng-Prusoff corrected, read-out: FLIPR hOx2R Ki
Procedure, shortened: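 Antagonism was measured as block of orexin A-evoked Ca²⁺ fluorescence (FLIPR), with orexin A added one hour after test compound (usually 10^−9–10^−5 M), which was first read alone for agonist activity. Human orexin 2 receptor cells were dye-loaded with 2 μM Fluo4-AM and 0.1 mM probenecid for 1 h.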

human orexin 1 receptors = human orexin 1 receptors (Homo sapiens (Human), UniProt O43613); test: as above; assay type: cell-based; settings: for inhibition at 10 µM: measured at a concentration of 10 μM of compound, read-out: FLIPR hOx1R % inhibition value; for Ki: antagonism of orexin A, Cheng-Prusoff corrected, read-out: FLIPR hOx1R Ki
Chain of human orexin 1 receptors (O43613 whole entry): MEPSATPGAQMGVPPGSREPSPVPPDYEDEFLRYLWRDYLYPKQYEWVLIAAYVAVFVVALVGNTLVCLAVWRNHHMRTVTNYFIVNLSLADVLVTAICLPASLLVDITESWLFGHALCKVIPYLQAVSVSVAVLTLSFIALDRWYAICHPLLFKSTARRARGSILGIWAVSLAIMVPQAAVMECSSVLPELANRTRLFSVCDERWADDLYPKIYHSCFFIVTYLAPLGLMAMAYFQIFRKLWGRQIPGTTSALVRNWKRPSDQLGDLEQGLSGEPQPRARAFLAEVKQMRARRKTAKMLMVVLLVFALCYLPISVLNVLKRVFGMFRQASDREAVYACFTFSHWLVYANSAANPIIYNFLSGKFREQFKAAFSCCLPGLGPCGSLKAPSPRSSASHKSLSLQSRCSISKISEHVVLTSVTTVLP

Chain of human orexin 2 receptors (O43614 whole entry): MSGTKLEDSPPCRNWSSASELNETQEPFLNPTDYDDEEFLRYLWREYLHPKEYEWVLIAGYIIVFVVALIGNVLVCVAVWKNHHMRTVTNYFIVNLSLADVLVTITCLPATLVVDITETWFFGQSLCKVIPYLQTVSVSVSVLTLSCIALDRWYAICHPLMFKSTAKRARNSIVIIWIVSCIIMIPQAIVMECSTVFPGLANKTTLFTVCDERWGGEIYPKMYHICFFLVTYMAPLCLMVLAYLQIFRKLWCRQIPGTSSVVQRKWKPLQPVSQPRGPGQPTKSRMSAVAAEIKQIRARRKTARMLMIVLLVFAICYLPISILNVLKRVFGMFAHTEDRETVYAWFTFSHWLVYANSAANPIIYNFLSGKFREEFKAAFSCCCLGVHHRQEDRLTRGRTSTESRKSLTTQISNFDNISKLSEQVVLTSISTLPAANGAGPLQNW

Compound	inhibition at 10 µM (human orexin 2 receptors)	inhibition at 10 µM (human orexin 1 receptors)	Ki (human orexin 2 receptors)	Ki (human orexin 1 receptors)
Cc1cc(OCC(=O)NCc2ccc(Cl)nc2)nc2c1c(C1CC1)nn2C [Example 7.14, N-((6-chloropyridin-3-yl)methyl)-2-(3-cyclopropyl-1,4-dimethyl-1H-pyrazolo[3,4-b]pyridin-6-yloxy)acetamide]	20%	31%		
Cc1csc(C(C)NC(=O)COc2cc(C)c3c(C4CC4)nn(C)c3n2)n1 (stereo not drawn) [Example 7.22, 2-(3-cyclopropyl-1,4-dimethyl-1H-pyrazolo[3,4-b]pyridin-6-yloxy)-N-(1-(4-methylthiazol-2-yl)ethyl)acetamide]	32%	40%		
Cc1cc(OCC(=O)NCc2ccc3c(c2)CCO3)nc2c1c(C1CC1)nn2C [Example 7.4, 2-(3-cyclopropyl-1H-dimethyl-1H-pyrazolo[3,4-b]pyridin-6-yloxy)-N-((2,3-dihydrobenzofuran-5-yl)methyl)acetamide]	26%	< 10%		
C[C@H](NC(=O)COc1cc(C(F)(F)F)c2c(C3CCCC3)nn(C)c2n1)c1ccccc1 [Example 1.52, (S)-2-(3-cyclopentyl-1-methyl-4-(trifluoromethyl)-1H-pyrazolo[3,4-b]pyridin-6-yloxy)-N-(1-phenylethyl)acetamide]			868 nM	1170 nM
Cc1n[nH]c(C)c1C(C)NC(=O)COc1cc(C)c2c(C3CC3)nn(C)c2n1 (stereo not drawn) [Example 1.76, 2-(3-cyclopropyl-1,4-dimethyl-1H-pyrazolo[3,4-b]pyridin-6-yloxy)-N-(1-(3,5-dimethyl-1H-pyrazol-4-yl)ethyl)acetamide]			606 nM	395 nM
Cn1nc(-c2ccccc2)c2c(C(F)(F)F)cc(OCC(=O)NC3CCCC3)nc21 [Example 1.10, N-cyclopentyl-2-(1-methyl-3-phenyl-4-(trirfluoromethyl)-1H-pyrazolo[3,4-b]pyridin-6-yloxy)acetamide]			324 nM	650 nM
Cc1cc(OCC(=O)NC(C)c2ccc3c(c2)ncn3C)nc2c1c(C1CC1)nn2C (stereo not drawn) [Example 6.58, 2-(3-cyclopropyl-1,4-dimethyl-1H-pyrazolo[3,4-b]pyridin-6-yloxy)-N-(1-(1-methyl-1H-benzo[d]imidazol-5-yl)ethyl)acetamide]			382 nM	1010 nM
Cc1ccccc1-c1nn(C)c2nc(OCC(=O)N[C@@H](C)c3ccccc3)cc(C(F)(F)F)c12 [Example 1.26, (S)-2-(1-methyl-3-o-tolyl-4-(trifluoromethyl)-1H-pyrazolo[3,4-b]pyridin-6-yloxy)-N-(1-phenylethyl)acetamide]			183 nM	218 nM
Cc1ccc([C@H](C)NC(=O)COc2cc(C)c3c(-c4cnc(C)n4C)nn(C)c3n2)cc1 [Example 4.4, (S)-2-(3-(1,2-dimethyl-1H-imidazol-5-yl)-1,4-dimethyl-1H-pyrazolo[3,4-b]pyridin-6-yloxy)-N-(1-p-tolylethyl)acetamide]			725 nM	799 nM
Cc1cc2c(cn1)[C@@H](NC(=O)COc1cc(C)c3c(C4CC4)nn(C)c3n1)CC2 [Example 6.64, (S)-2-(3-cyclopropyl-1,4-dimethyl-1H-pyrazolo[3,4-b]pyridin-6-yloxy)-N-(3-methyl-6,7-dihydro-5H-cyclopenta[c]pyridin-7-yl)acetamide]			93 nM	783 nM
CC(C)CCNC(=O)COc1cc(C(F)(F)F)c2c(-c3ccccc3)nn(C)c2n1 [Example 1.68, N-isopentyl-2-(1-methyl-3-phenyl-4-(trifluoromethyl)-1H-pyrazolo[3,4-b]pyridin-6-yloxy)acetamide]	16%	< 10%		
COc1ccc([C@H](C)NC(=O)C(C)Oc2cc(C)c3c(C4CC4)nn(C)c3n2)cc1 (stereo partly drawn) [Example 6.70, 2-(3-cyclopropyl-1,4-dimethyl-1H-pyrazolo[3,4-b]pyridin-6-yloxy)-N-((S)-1-(4-methoxyphenyl)ethyl)propanamide]			1070 nM	1060 nM
Cc1cc(OCC(=O)NCCCn2ccnc2)nc2c1c(C1CC1)nn2C [Example 7.3, N-(3-(1H-imidazol-1-yl)propyl)-2-(3-cyclopropyl-1,4-dimethyl-1H-pyrazolo[3,4-b]pyridin-6-yloxy)acetamide]	16%	< 10%		
Cc1ccc(C(C)NC(=O)COc2cc(C(F)(F)F)c3c(-c4ccccc4)nn(C)c3n2)o1 (stereo not drawn) [Example 1.28, 2-(1-methyl-3-phenyl-4-(trifluoromethyl)-1H-pyrazolo[3,4-b]pyridin-6-yloxy)-N-(1-(5-methylfuran-2-yl)ethyl)acetamide]			411 nM	941 nM
C[C@H](NC(=O)COc1cc(C(F)(F)F)c2c(-c3ccccc3)noc2n1)c1ccccc1 [Example 6.78, (S)-2-(3-phenyl-4-(trifluoromethyl)isoxazolo[5,4-b]pyridin-6-yloxy)-N-(1-phenylethyl)acetamide]		43%	1830 nM	
Cc1cc(OCC(=O)N[C@@H](C)c2ccccc2)nc2c1c(C1CC1)nn2C [Example 1.69, (S)-2-(3-cyclopropyl-1,4-dimethyl-1H-pyrazolo[3,4-b]pyridin-6-yloxy)-N-(1-phenylethyl)acetamide]			938 nM	1010 nM
Cc1cccc(C(C)NC(=O)COc2cc(C)c3c(C4CC4)nn(C)c3n2)n1 (stereo not drawn) [Example 7.7, 2-(3-cyclopropyl-1,4-dimethyl-1H-pyrazolo[3,4-b]pyridin-6-yloxy)-N-(1-(6-methylpyridin-2-yl)ethyl)acetamide]	21%	32%		
Cn1nc(-c2ccccc2)c2c(C(F)(F)F)cc(OCC(=O)NCc3ccc(Cl)cc3)nc21 [Example 1.11, N-(4-chlorobenzyl)-2-(1-methyl-3-phenyl-4-(trifluoromethyl)-1H-pyrazolo[3,4-b]pyridin-6-yloxy)acetamide]			251 nM	2010 nM
Cc1cc(OCC(=O)NCC(C)C)nc2c1c(C1CC1)nn2C [Example 6.45, 2-(3-cyclopropyl-1,4-dimethyl-1H-pyrazolo[3,4-b]pyridin-6-yloxy)-N-isobutylacetamide]	19%	20%		
COc1ccc(CNC(=O)COc2cc(C)c3c(C4CC4)nn(C)c3n2)cc1Cl [Example 7.16, N-(3-chloro-4-methoxybenzyl)-2-(3-cyclopropyl-1,4-dimethyl-1H-pyrazolo[3,4-b]pyridin-6-yloxy)acetamide]			1030 nM	3630 nM
COc1ccc(CNC(=O)COc2cc(C)c3c(C4CC4)nn(C)c3n2)c(OC)c1 [Example 7.27, 2-(3-cyclopropyl-1,4-dimethyl-1H-pyrazolo[3,4-b]pyridin-6-yloxy)-N-(2,4-dimethoxybenzyl)acetamide]		48%	472 nM	
C[C@H](NC(=O)COc1cc(C(F)(F)F)c2c(C3CC3)nn(C)c2n1)c1ccccc1 [Example 1.50, (S)-2-(3-cyclopropyl-1-methyl-4-(trifluoromethyl)-1H-pyrazolo[3,4-b]pyridin-6-yloxy)-N-(1-phenylethyl)acetamide]			168 nM	730 nM
Cc1nn(C)c(C)c1C(C)NC(=O)COc1cc(C(F)F)c2c(C3CC3)nn(C)c2n1 (stereo not drawn) [Example 6.9, 2-(3-cyclopropyl-4-(difluoromethyl)-1-methyl-1H-pyrazolo[3,4-b]pyridin-6-yloxy)-N-(1-(1,3,5-trimethyl-1H-pyrazol-4-yl)ethyl)acetamide]			527 nM	778 nM
COc1ccc([C@H](C)NC(=O)C(C)Oc2cc(C)c3c(C4CC4)nn(C)c3n2)cc1 (single isomer, unassigned) [Example 6.73, (S or R)-2-(3-cyclopropyl-1,4-dimethyl-1H-pyrazolo[3,4-b]pyridin-6-yloxy)-N-((S)-1-(4-methoxyphenyl)ethyl)propanamide]	29%	43%		
Cn1nc(-c2ccccc2)c2c(C(F)(F)F)cc(OCC(=O)NCc3cccc(Cl)c3)nc21 [Example 1.43, N-(3-chlorobenzyl)-2-(1-methyl-3-phenyl-4-(trifluoromethyl)-1H-pyrazolo[3,4-b]pyridin-6-yloxy)acetamide]		24%	2060 nM	
Cc1cc(OCC(=O)NC2CCCc3c2cnn3C)nc2c1c(C1CC1)nn2C (stereo not drawn) [Example 7.24, 2-(3-cyclopropyl-1,4-dimethyl-1H-pyrazolo[3,4-b]pyridin-6-yloxy)-N-(1-methyl-4,5,6,7-tetrahydro-1H-indazol-4-yl)acetamide]	25%	28%		
Cc1cc(OCC(=O)N[C@H]2CCc3cc(OC(C)C)ccc32)nc2c1c(C1CC1)nn2C [Example 6.69, (S)-2-(3-cyclopropyl-1,4-dimethyl-1H-pyrazolo[3,4-b]pyridin-6-yloxy)-N-(5-isopropoxy-2,3-dihydro-1H-inden-1-yl)acetamide]	31%			126 nM
Cn1nc(-c2ccccc2)c2c(C(F)(F)F)cc(OCC(=O)NC3CC3)nc21 [Example 1.53, N-cyclopropyl-2-(1-methyl-3-phenyl-4-(trifluoromethyl)-1H-pyrazolo[3,4-b]pyridin-6-yloxy)acetamide]	36%	14%		
CC(NC(=O)COc1cc(C(F)(F)F)c2c(-c3ccccc3)nn(C)c2n1)c1ccncc1 (stereo not drawn) [Example 1.31, 2-(1-methyl-3-phenyl-4-(trifluoromethyl)-1H-pyrazolo[3,4-b]pyridin-6-yloxy)-N-(1-(pyridin-4-yl)ethyl)acetamide]	40%			2110 nM
Cc1cc(OCC(=O)NC(C)c2cccnc2)nc2c1c(-c1ccccc1)nn2C (stereo not drawn) [Example 1.64, 2-(1,4-dimethyl-3-phenyl-1H-pyrazolo[3,4-b]pyridin-6-yloxy)-N-(1-(pyridin-3-yl)ethyl)acetamide]	39%	26%		
